From patent US11932658B2 (BRISTOL-MYERS SQUIBB COMPANY, priority 2016, dated 2024)

Each compound was assayed against T1, PAR4 (Homo sapiens, UniProt Q96RI0) (assay: PAR4 FLIPR assay (antagonism of agonist peptide-induced calcium mobilization)).
T1 construct: expressed in transfected cells; host or cells: HEK293 PAR4 Clone 1.2A (BMS Arctic ID 383940)
T1 sequence (Q96RI0 18-385): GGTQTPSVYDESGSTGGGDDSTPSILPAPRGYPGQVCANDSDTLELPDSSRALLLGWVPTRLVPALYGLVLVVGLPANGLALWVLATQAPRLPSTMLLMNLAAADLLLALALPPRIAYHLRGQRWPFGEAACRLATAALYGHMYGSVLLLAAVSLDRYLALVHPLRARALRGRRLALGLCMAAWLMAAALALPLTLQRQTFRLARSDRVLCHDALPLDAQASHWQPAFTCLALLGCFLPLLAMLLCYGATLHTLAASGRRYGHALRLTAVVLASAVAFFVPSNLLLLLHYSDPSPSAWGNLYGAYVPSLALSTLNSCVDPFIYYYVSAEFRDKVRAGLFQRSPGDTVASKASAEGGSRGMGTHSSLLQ
Type: cell-based
In short: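 Antagonism was taken as block of calcium mobilization evoked by the agonist peptide H-Ala-Phe(4-F)-Pro-Gly-Trp-Leu-Val-Lys-Asn-[…]-NH2, added after 30 min room-temperature compound preincubation in dye-loaded PAR4-transfected HEK293 cells (endogenous PAR1). Fluorescence was read on FDSS, with compound addition alone used as the agonist counter-screen; values come from 11-point concentration-response curves.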

IC50	Compound
1 nM	COc1cnc2c(-c3nc4cc(F)c5c(c4s3)C[C@@H](CNC(=O)OCC(F)(F)F)O5)cc(C)cc2n1 [Example 249, (S)-2,2,2-trifluoroethyl ((5-fluoro-2-(2-methoxy-7-methylquinoxalin-5-yl)-7,8-dihydrobenzofuro[5,4-d]thiazol-7-yl)methyl)carbamate]
2.3 nM	COCCOC(=O)NC[C@@H]1Cc2c(c(F)cc3nc(-c4cc(C)cc5nc(OC)cnc45)sc23)O1 [Example 250, (S)-2-methoxyethyl ((5-fluoro-2-(2-methoxy-7-methylquinoxalin-5-yl)-7,8-dihydrobenzofuro[5,4-d]thiazol-7-yl)methyl)carbamate]
0.9 nM	COc1cnc2c(-c3nc4cc(F)c5c(c4s3)C[C@](C)(COC(=O)Nc3cnc(OCCO)nc3)O5)cc(C)cc2n1 [Example 251, (R)-(5-fluoro-2-(2-methoxy-7-methylquinoxalin-5-yl)-7-methyl-7,8-dihydrobenzofuro[5,4-d]thiazol-7-yl)methyl (2-(2-hydroxyethoxy)pyrimidin-5-yl)carbamate]
88 nM	COc1cnc2c(-c3nc4cc(F)c5c(c4s3)[C@@H](C)[C@H](COC(=O)Nc3cnc(OCCO)nc3)O5)cc(C)cc2n1 [Example 252, ((7R,8R)-5-fluoro-2-(2-methoxy-7-methylquinoxalin-5-yl)-8-methyl-7,8-dihydrobenzofuro[5,4-d]thiazol-7-yl)methyl (2-(2-hydroxyethoxy)pyrimidin-5-yl)carbamate]
2.7 nM	COc1cnc2c(-c3nc4cc(F)c5c(c4s3)[C@H](C)[C@@H](CO)O5)cc(Cl)cc2n1 [Example 253, ((7S,8S)-2-(7-chloro-2-methoxyquinoxalin-5-yl)-5-fluoro-8-methyl-7,8-dihydrobenzofuro [5,4-d]thiazol-7-yl)methanol]
0.6 nM	COc1cnc2c(-c3nc4cc(F)c5c(c4s3)[C@H](C)[C@@H](CO)O5)cc(C#N)cc2n1 [Example 254, 8-((7S,8S)-5-fluoro-7-(hydroxymethyl)-8-methyl-7,8-dihydrobenzofuro[5,4-d]thiazol-2-y 1)-3-methoxyquinoxaline-6-carbonitrile]
1.4 nM	COC(=O)NC[C@H]1Oc2c(F)cc3nc(-c4cc(C)cc5nc(OC)cnc45)sc3c2[C@@H]1C [Example 255, Methyl (((7S,8S)-5-fluoro-2-(2-methoxy-7-methylquinoxalin-5-yl)-8-methyl-7,8-dihydrobenzofuro[5,4-d]thiazol-7-yl)methyl)carbamate]
0.7 nM	COc1cnc2c(-c3nc4cc(F)c5c(c4s3)[C@H](C)[C@@H](CNC(=O)OCC(C)C)O5)cc(C)cc2n1 [Example 256, Isobutyl (((7S,8S)-5-fluoro-2-(2-methoxy-7-methylquinoxalin-5-yl)-8-methyl-7,8-dihydrobenzofuro[5,4-d]thiazol-7-yl)methyl)carbamate]
50 nM	COc1cnc2c(-c3nc4cc(F)c5c(c4s3)C[C@@H](CNC(=O)NC3CC3)O5)cc(C)cc2n1 [Example 257, (S)-1-cyclopropyl-3-((5-fluoro-2-(2-methoxy-7-methylquinoxalin-5-yl)-7,8-dihydrobenzofuro[5,4-d]thiazol-7-yl)methyl)urea]
8.1 nM	COc1cnc2c(-c3nc4cc(F)c5c(c4s3)C[C@@H](CNC(=O)N3CCOCC3)O5)cc(C)cc2n1 [Example 258, (S)-N-((5-fluoro-2-(2-methoxy-7-methylquinoxalin-5-yl)-7,8-dihydrobenzofuro[5,4-d]thiazol-7-yl)methyl)morpholine-4-carboxamide]
1.1 nM	CCOc1cnc2c(-c3nc4cc(F)c5c(c4s3)[C@H](C)[C@@H](CO)O5)cc(C)cc2n1 [Example 259, ((7S,8S)-2-(2-ethoxy-7-methylquinoxalin-5-yl)-5-fluoro-8-methyl-7,8-dihydrobenzofuro[5,4-d]thiazol-7-yl)methanol]
1 nM	CCOC(=O)NC[C@@H]1Cc2c(c(F)cc3nc(-c4cc(C)cc5nc(OC)cnc45)sc23)O1 [Example 260, (S)-ethyl ((5-fluoro-2-(2-methoxy-7-methylquinoxalin-5-yl)-7,8-dihydrobenzofuro[5,4-d]thiazol-7-yl)methyl)carbamate]
1.1 nM	COc1cnc2c(-c3nc4cc(F)c5c(c4s3)C[C@@H](CNC(=O)OCC(C)(C)C)O5)cc(C)cc2n1 [Example 261, (S)-neopentyl ((5-fluoro-2-(2-methoxy-7-methylquinoxalin-5-yl)-7,8-dihydrobenzofuro[5,4-d]thiazol-7-yl)methyl)carbamate]
2.3 nM	COc1cnc2c(-c3nc4c(C(O)C(C)(C)C)cc5c(c4s3)OCCO5)cc(C)cc2n1 (stereo not drawn) [Example 262, 1-(2-(2-methoxy-7-methylquinoxalin-5-yl)-7,8-dihydro-[1,4]dioxino[2′,3′:3,4]benzo[1,2-d]thiazol-4-yl)-2,2-dimethylpropan-1-ol]
5.7 nM	COc1cnc2c(-c3nc4c(C(O)C(C)(C)C)cc5c(c4s3)OCO5)cc(C)cc2n1 (stereo not drawn) [Example 263, 1-(7-(2-methoxy-7-methylquinoxalin-5-yl)-[1,3]dioxolo[4′,5′:3,4]benzo[1,2-d]thiazol-5-yl)-2,2-dimethylpropan-1-ol]
15 nM	COc1cnc2c(-c3nc4c(C(O)C(C)(C)C)cc5c(c4s3)OCCCO5)cc(C)cc2n1 (stereo not drawn) [Example 264, 1-(2-(2-methoxy-7-methylquinoxalin-5-yl)-8,9-dihydro-7H-[1,4]dioxepino[2′,3′:3,4]benzo[1,2-d]thiazol-4-yl)-2,2-dimethylpropan-1-ol]
2.1 nM	COc1cnc2c(-c3nc4ccc5c(c4s3)OC[C@H](COC(=O)Nc3cnc(C)nc3)O5)cc(Cl)cc2c1 [Example 266, (R)-(2-(6-chloro-3-methoxyquinolin-8-yl)-7,8-dihydro-[1,4]dioxino[2′,3′:3,4]benzo[1,2-d]thiazol-7-yl)methyl (2-methylpyrimidin-5-yl)carbamate]
1.8 nM	COc1cnc2c(-c3nc4cc(F)c5c(c4s3)C[C@H](COC(=O)Nc3cnc(C)nc3)O5)cc(Cl)cc2c1 [Example 267, (R)-(2-(6-chloro-3-methoxyquinolin-8-yl)-5-fluoro-7,8-dihydrobenzofuro[5,4-d]thiazol-7-yl)methyl (2-methylpyrimidin-5-yl)carbamate]
4.4 nM	COc1cnc2c(-c3nc4ccc5c(c4s3)OC[C@H](COC(=O)Nc3cnc(C)nc3)O5)cc(C)cc2c1 [Example 268, (R)-(2-(3-methoxy-6-methylquinolin-8-yl)-7,8-dihydro-[1,4]dioxino[2′,3′:3,4]benzo[1,2-d]thiazol-7-yl)methyl (2-methylpyrimidin-5-yl)carbamate]
2.7 nM	COc1cnc2c(-c3nc4cc(F)c5c(c4s3)C[C@H](COC(=O)Nc3cnc(C)nc3)O5)cc(C)cc2c1 [Example 269, (R)-(5-fluoro-2-(3-methoxy-6-methylquinolin-8-yl)-7,8-dihydrobenzofuro[5,4-d]thiazol-7-yl)methyl (2-methylpyrimidin-5-yl)carbamate]
2.2 nM	CCOc1cnc2c(-c3nc4cc(F)c5c(c4s3)C[C@H](COC(=O)Nc3cnc(C)nc3)O5)cc(Cl)cc2c1 [Example 270, (R)-(2-(6-chloro-3-ethoxyquinolin-8-yl)-5-fluoro-7,8-dihydrobenzofuro[5,4-d]thiazol-7-y 1)methyl (2-methylpyrimidin-5-yl)carbamate]
